Structures are written as SMILES.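 How tested: cells in 96-well plates exposed to compound for 48 hours at five concentrations. The concentration for 50% growth inhibition is given as GI50.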 The source made the active and inactive calls. Rule as the data show it: active = GI50 up to about 1.1 µM and inactive = higher. Where only a bound is given, the exact number is not on record here.

Some test systems named below: HCT-15; UACC-62; MOLT-4; EKVX; PC-3; HOP-62; SF-268; DU-145; NCI/ADR-RES; A498; KM12; SF-539; HT-29; SNB-75; A549; SK-MEL-28; HOP-92.
Holding throughout (assay): DTP human tumour cell line panel, 48 h

`CSC(=O)c1sc(SC)[n+](-c2ccccc2)c1O`: the GI50 (commonly the concentration giving 50% growth inhibition) in the assay on HCT-15 was 21 µM; in the assay with UACC-62 it was 15.6 µM (inactive); in the assay with MOLT-4, 11.1 µM (inactive); with EKVX it was > 10 µM (inactive); with PC-3, 14 µM (inactive); with HOP-62, 17 µM (inactive). In addition, the GI50 in the assay with SF-268 was 16.4 µM (inactive); in the assay with DU-145 it was 16 µM (inactive); with NCI/ADR-RES, 30.3 µM (inactive); in the assay on A498, 30.1 µM (inactive); in the assay on KM12, > 10 µM (inactive); with SF-539, 15.1 µM (inactive). In addition, the GI50 with HT-29 is 20.2 µM (inactive); with SNB-75, 13.1 µM (inactive); with A549, > 100 µM (inactive); in the assay with SK-MEL-28, 17.7 µM (inactive).

With `CSc1c(C#N)c(N)n(-c2ccc(Cl)cc2)c(=O)c1C#N`, the GI50 with HCT-15 is greater than 100 µM; in the assay with UACC-62, > 100 µM (inactive); with MOLT-4 it was 61.4 µM (inactive); in the assay with EKVX, > 100 µM (inactive); in the assay with PC-3, > 100 µM (inactive); with SF-268, > 100 µM (inactive). Also, the GI50 in the assay on DU-145, in the assay with NCI/ADR-RES, with A498, with KM12, in the assay on SF-539 and in the assay with HT-29 was > 100 µM (inactive) in each case. Besides, the GI50 with SNB-75 was 78 µM (inactive); with A549, > 100 µM (inactive); with HOP-92, 21 µM (inactive); with SK-MEL-28, > 100 µM (inactive).

For the compound `Cc1cc(C)nc(NS(=O)(=O)c2ccc(Nc3c4ccccc4nc4c(C(=O)NCCO)cccc34)cc2)n1`, the GI50 in the assay on HCT-15 is 17.8 µM; with UACC-62, 21.5 µM (inactive); in the assay with MOLT-4 it was 4.79 µM (inactive); with EKVX, 41.5 µM (inactive); in the assay on PC-3, 23.2 µM (inactive); in the assay with HOP-62, 9.31 µM (inactive). The GI50 with SF-268 was 14.5 µM (inactive); in the assay on DU-145, 40.8 µM (inactive); in the assay with NCI/ADR-RES it was 48.5 µM (inactive); in the assay with A498, 38.5 µM (inactive); in the assay with KM12, 10.9 µM (inactive); with HT-29 it was 13.1 µM (inactive). Also, the GI50 is 3.27 µM (inactive) in the assay with SNB-75, 29.6 µM (inactive) in the assay with A549, > 100 µM (inactive) with HOP-92 and 19.6 µM (inactive) in the assay with SK-MEL-28.

For `S=c1[nH]nc(Cn2c3ccc(Br)cc3c3nc4ccccc4nc32)o1`, the concentration for 50% growth inhibition (GI50) in the assay on HCT-15 was 1.06 µM; in the assay with UACC-62 it was 27.5 µM (inactive); with MOLT-4, 27.1 µM (inactive); in the assay with EKVX, 71.6 µM (inactive); in the assay on PC-3, 4.79 µM (inactive); in the assay on HOP-62, 29.9 µM (inactive). Moreover, the GI50 in the assay on SF-268 is > 60.5 µM (inactive); with DU-145, 36.6 µM (inactive); in the assay with NCI/ADR-RES, 74.5 µM (inactive); in the assay on A498 it was 43.9 µM (inactive); with KM12, 47.3 µM (inactive); in the assay on SF-539, 30.4 µM (inactive). For the same compound, the GI50 in the assay with HT-29 is 35.6 µM (inactive); with SNB-75, 86.1 µM (inactive); in the assay with A549 it was 22.8 µM (inactive); with SK-MEL-28, 27.3 µM (inactive).

In the case of `CN1CC[C@]2(c3cccc(O)c3)CC(=O)/C(=C/c3ccc(Cl)c(Cl)c3)[C@@H]1C2`, the GI50 was 1.16 µM with HCT-15; 0.273 µM (active) with MOLT-4; 1.55 µM (inactive) in the assay with EKVX; 0.324 µM (active) with PC-3; 1.71 µM (inactive) in the assay with SF-268; 1.65 µM (inactive) with DU-145. The GI50 in the assay on NCI/ADR-RES was 1.54 µM (inactive); in the assay with A498, 1.63 µM (inactive); in the assay with KM12, 0.575 µM (active); in the assay on SF-539, 2.5 µM (inactive); in the assay with HT-29, 1.01 µM (active); in the assay on SNB-75, 0.455 µM (active). Besides, the figures for the GI50 with A549, in the assay with HOP-92 and with SK-MEL-28 were 1.6 µM (inactive), 1.22 µM (inactive) and 1.55 µM (inactive), respectively.

For the compound `O=C1Nc2ccccc2C1(O)Cc1ccccn1` (configuration not stated), the GI50 with HCT-15 is greater than 100 µM; with UACC-62, > 100 µM (inactive); in the assay with EKVX it was > 100 µM (inactive); in the assay with PC-3, > 100 µM (inactive); in the assay on HOP-62 it was > 100 µM (inactive); with SF-268, > 100 µM (inactive). For the same compound, the GI50 in the assay with DU-145 was > 100 µM (inactive); with NCI/ADR-RES it was > 100 µM (inactive); in the assay on A498, > 100 µM (inactive); with KM12 it was > 100 µM (inactive); in the assay with HT-29, > 100 µM (inactive); in the assay with SNB-75 it was 43.1 µM (inactive). Further, the GI50 in the assay on A549, with HOP-92 and in the assay on SK-MEL-28 was > 100 µM (inactive) throughout.

Take `C=CCN(c1cc(OC)c2c(c1[N+](=O)[O-])C(C)(SC)C(=O)N2)S(C)(=O)=O` (configuration not stated): the GI50 in the assay on HCT-15 is greater than 100 µM; in the assay with UACC-62 it was 71.4 µM (inactive); with PC-3 it was > 100 µM (inactive); in the assay with SF-268, 83.6 µM (inactive); in the assay with DU-145, > 100 µM (inactive); with NCI/ADR-RES, > 100 µM (inactive). Also, the GI50 with A498 is > 100 µM (inactive); in the assay with KM12, > 100 µM (inactive); in the assay with SF-539, > 100 µM (inactive); in the assay on HT-29 it was > 100 µM (inactive); in the assay on SNB-75, 91.6 µM (inactive); with A549, > 100 µM (inactive). The GI50 in the assay with HOP-92 is 32.5 µM (inactive); in the assay with SK-MEL-28, > 100 µM (inactive).

Take `Cc1cccc(NC(=S)Nc2cccc(Cl)c2)n1`: the GI50 in the assay with HCT-15 was greater than 100 µM; in the assay on UACC-62, > 75.2 µM (inactive); in the assay with MOLT-4 it was > 100 µM (inactive); in the assay with EKVX, > 100 µM (inactive); in the assay with PC-3, > 100 µM (inactive); in the assay on HOP-62 it was 39.4 µM (inactive). The GI50 was > 67.8 µM (inactive) in the assay on SF-268; > 100 µM (inactive) with DU-145; > 96.4 µM (inactive) in the assay on NCI/ADR-RES; > 70.3 µM (inactive) in the assay on A498; > 100 µM (inactive) with KM12; 30.1 µM (inactive) with SF-539. In addition, the GI50 in the assay with HT-29 was > 100 µM (inactive); in the assay with SNB-75 it was > 54 µM (inactive); with A549, > 100 µM (inactive); in the assay on SK-MEL-28, > 100 µM (inactive).

For `C=CC(CCc1ccc(C(=O)OCC)cc1)c1c(N)nc(N)[nH]c1=O` (configuration not stated), the GI50 with HCT-15 is greater than 100 µM; with UACC-62, > 100 µM (inactive); in the assay on MOLT-4, 59.4 µM (inactive); in the assay on PC-3, 52.6 µM (inactive); in the assay on HOP-62, > 100 µM (inactive); in the assay on SF-268, > 100 µM (inactive). Further, the GI50 with DU-145 was > 100 µM (inactive); in the assay on NCI/ADR-RES, > 100 µM (inactive); in the assay on A498 it was 21.2 µM (inactive); in the assay with KM12 it was > 100 µM (inactive); in the assay with SF-539 it was > 100 µM (inactive); with HT-29 it was 72.8 µM (inactive). The GI50 in the assay with SNB-75 is 47.8 µM (inactive); in the assay on A549, > 100 µM (inactive); with HOP-92, 12.6 µM (inactive); with SK-MEL-28, > 100 µM (inactive).

For `CN(C(=O)Cc1ccc(Cl)c(Cl)c1)[C@@H]1CCCC[C@H]1[N+]1(C)CC=CC1`, the GI50 in the assay on HCT-15 was greater than 100 µM; in the assay on UACC-62 it was > 100 µM (inactive); with MOLT-4, > 100 µM (inactive); in the assay with EKVX, > 100 µM (inactive); in the assay with PC-3, > 100 µM (inactive); in the assay with HOP-62, > 100 µM (inactive). Besides, the GI50 with SF-268, in the assay on DU-145, in the assay with NCI/ADR-RES, in the assay with A498, in the assay on KM12 and with HT-29 was > 100 µM (inactive) in each case. In addition, the GI50 with A549, with HOP-92 and with SK-MEL-28 was > 100 µM (inactive) throughout.

`c1ccc(-c2nnn(CCN3CCCCC3)n2)cc1`: the GI50 with HCT-15 was greater than 100 µM; in the assay on UACC-62 it was > 100 µM (inactive); with EKVX it was 96.6 µM (inactive); in the assay on PC-3 it was > 100 µM (inactive); in the assay on HOP-62, > 100 µM (inactive); in the assay on SF-268, > 100 µM (inactive). Further, the GI50 with DU-145, with NCI/ADR-RES, with A498, with KM12, with HT-29 and in the assay with SNB-75 was > 100 µM (inactive) in each case. Besides, the GI50 in the assay with A549, with HOP-92 and with SK-MEL-28 was > 100 µM (inactive) each time.

`CCOP(=O)(/C=C\n1cc(C)c(=O)[nH]c1=O)OCC`: the GI50 in the assay with HCT-15 is greater than 100 µM; in the assay with UACC-62, > 100 µM (inactive); with MOLT-4, > 100 µM (inactive); with EKVX it was > 100 µM (inactive); in the assay on PC-3 it was > 100 µM (inactive); with HOP-62, > 100 µM (inactive). Also, the GI50 with SF-268, with DU-145, with NCI/ADR-RES, in the assay with A498, with KM12 and in the assay with SF-539 was > 100 µM (inactive) each time. In addition, the GI50 in the assay on HT-29, with SNB-75, in the assay on A549 and in the assay on SK-MEL-28 was > 100 µM (inactive) throughout.

For the compound `Cc1ccc(N2C=Nn3c(nc4sc5c(c4c3=O)CCCC5)C2)cc1`, the GI50 was 48.2 µM with HCT-15; > 100 µM (inactive) with UACC-62; > 100 µM (inactive) with MOLT-4; 80 µM (inactive) with EKVX; 49.4 µM (inactive) in the assay on PC-3; 21.2 µM (inactive) with HOP-62. The GI50 was 83 µM (inactive) with SF-268; 69.3 µM (inactive) with DU-145; 70.3 µM (inactive) with NCI/ADR-RES; 54.5 µM (inactive) in the assay on A498; 62.4 µM (inactive) in the assay on KM12; 47.1 µM (inactive) with HT-29. In addition, the GI50 with SNB-75 was 52 µM (inactive); in the assay with A549, 47.4 µM (inactive); in the assay on HOP-92, > 100 µM (inactive); in the assay with SK-MEL-28 it was 93.5 µM (inactive).

For the origin of these results see ChEMBL document CHEMBL1201862, “PubChem BioAssay data set” (2004).
